Assays:
full-length human CSNK1D = target: T1, full-length human CSNK1D (Homo sapiens, UniProt P48730); experiment: CSNK1D Assay (ADP-Glo, 1 μM ATP); type: biochemical; details: Table 3, read-out: CSNK1D IC50 [mol/l] (median)
T1 construct: N-terminal Glutathion-S-Transferase (GST) and full-length human CSNK1D; purchased Life Technologies PV3665; host or cells: baculovirus infected insect cells
Procedure, shortened: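 Enzyme is N-terminal GST-tagged full-length human CSNK1D from baculovirus-infected insect cells (typically about 0.5 ng/μL), with a biotinylated peptide substrate and 1 μM ATP. Compound pre-incubated 15 min at 22° C in HEPES pH 7.5 buffer; ADP formed is read by ADP-Glo luminescence.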

[1] = target: T2, full-length human CSNK1A1 (Homo sapiens, UniProt P48729); experiment: CSNK1A1 High ATP Assay (ADP-Glo, 1 mM ATP); type: biochemical; details: Table 3, read-out: CSNK1A1 high ATP assay IC50 [mol/l] (median);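 note: 30 min kinase reaction at 22 °C with 100 µM peptide substrate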
T2 construct: N-terminal Glutathion-S-Transferase (GST) and full-length human CSNK1A1; purchased Life Technologies PV4174; host or cells: baculovirus infected insect cells
T2 sequence (P48729 whole entry): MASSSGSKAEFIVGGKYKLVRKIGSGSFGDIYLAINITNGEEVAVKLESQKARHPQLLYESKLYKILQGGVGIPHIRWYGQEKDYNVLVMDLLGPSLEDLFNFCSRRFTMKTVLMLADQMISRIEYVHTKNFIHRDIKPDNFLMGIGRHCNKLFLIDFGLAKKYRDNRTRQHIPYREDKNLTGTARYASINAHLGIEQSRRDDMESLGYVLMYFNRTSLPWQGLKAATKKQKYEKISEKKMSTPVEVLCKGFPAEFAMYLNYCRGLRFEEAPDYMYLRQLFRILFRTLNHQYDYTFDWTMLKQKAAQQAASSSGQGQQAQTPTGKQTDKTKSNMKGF
Procedure, shortened: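 GST-tagged full-length human CSNK1A1 from baculovirus-infected insect cells (typically about 0.4 ng/μL), pre-incubated with compound 15 min at 22 °C. Reaction with biotinylated peptide biotin-Ahx-KRRRAL-pS-VASLPGL at 1 mM ATP. ADP formed read by ADP-Glo luminescence.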

T1 sequence (P48730 whole entry): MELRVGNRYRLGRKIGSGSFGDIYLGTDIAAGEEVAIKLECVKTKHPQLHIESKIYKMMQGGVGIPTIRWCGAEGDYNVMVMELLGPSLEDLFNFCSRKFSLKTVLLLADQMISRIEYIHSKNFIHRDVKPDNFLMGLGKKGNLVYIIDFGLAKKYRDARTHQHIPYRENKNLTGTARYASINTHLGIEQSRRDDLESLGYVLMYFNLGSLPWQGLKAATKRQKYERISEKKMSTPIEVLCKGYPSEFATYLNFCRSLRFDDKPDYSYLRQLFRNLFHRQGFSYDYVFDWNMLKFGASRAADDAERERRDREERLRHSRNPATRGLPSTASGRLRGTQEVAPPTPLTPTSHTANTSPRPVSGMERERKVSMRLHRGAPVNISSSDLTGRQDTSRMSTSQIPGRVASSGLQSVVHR

| SMILES | IC50 (full-length human CSNK1D) [nM] | IC50 [1] [nM] |
| --- | --- | --- |
| O=C(Nc1cc(-c2[nH]c3cccnc3c2-c2cccc(F)n2)ccn1)C(CC(F)F)c1ccc(F)cc1 (single isomer, unassigned; (-)) [Example 26, (−)-4,4-difluoro-2-(4-fluorophenyl)-N-{4-[3-(6-fluoropyridin-2-yl)-1H-pyrrolo[3,2-b]pyridin-2-yl]pyridin-2-yl}butanamide] | 50.7 | 15.8 |
| Cc1cc(F)nc2c(-c3ccccn3)c(-c3ccnc(NC(=O)C(CC(F)F)c4ccc(F)cc4)c3)[nH]c12 (single isomer, unassigned; (-)) [Example 38, (−)-4,4-difluoro-N-{4-[5-fluoro-7-methyl-3-(pyridin-2-yl)-1H-pyrrolo[3,2-b]pyridin-2-yl]pyridin-2-yl}-2-(4-fluorophenyl)butanamide] | 3.8 | 2.26 |
| COc1cc(F)nc2c(-c3ccccn3)c(-c3ccnc(NC(=O)C(CC(F)F)c4ccc(F)cc4)c3)[nH]c12 (single isomer, unassigned; (-)) [Example 41, (−)-4,4-difluoro-N-{4-[5-fluoro-7-methoxy-3-(pyridin-2-yl)-1H-pyrrolo[3,2-b]pyridin-2-yl]pyridin-2-yl}-2-(4-fluorophenyl)butanamide] | 4.13 | 3.37 |
| O=C(Nc1cc(-c2[nH]c3ccc(F)nc3c2-c2ccc(F)cn2)ccn1)C(CC(F)F)c1ccc(F)cc1 (single isomer, unassigned; (-)) [Example 110, (−)-4,4-difluoro-N-{4-[5-fluoro-3-(5-fluoropyridin-2-yl)-1H-pyrrolo[3,2-b]pyridin-2-yl]pyridin-2-yl}-2-(4-fluorophenyl)butanamide] | 43 | 47.6 |
| O=C(Nc1cc(-c2[nH]c3c(OC4CC4)cc(F)nc3c2-c2ccccn2)ccn1)C(CC(F)F)c1ccc(F)cc1 (stereo not drawn) [Example 45] | 40.4 | 22.3 |
| COc1cnc2c(-c3ccccn3)c(-c3ccnc(NC(=O)C(CC(F)F)c4ccc(F)cc4)c3)[nH]c2n1 (stereo not drawn) [Example 101, 4,4-difluoro-2-(4-fluorophenyl)-N-{4-[3-methoxy-7-(pyridin-2-yl)-5H-pyrrolo[2,3-b]pyrazin-6-yl]pyridin-2-yl}butanamide] | 9.17 | 4.82 |
| O=C(Nc1cc(-c2[nH]c3cccnc3c2-c2ccccn2)ccn1)C(CCO)c1ccc(F)cc1 (stereo not drawn) [Example 104, 2-(4-fluorophenyl)-4-hydroxy-N-(4-(3-(pyridin-2-yl)-1H-pyrrolo[3,2-b]pyridin-2-yl)pyridin-2-yl)-butanamide] | 16.3 | 6.29 |
| O=C(Nc1cc(-c2[nH]c3nc(OC(F)F)cnc3c2-c2ccccn2)ccn1)C(CC(F)F)c1ccc(F)cc1 (stereo not drawn) [Example 105, N-{4-[3-(difluoromethoxy)-7-(pyridin-2-yl)-5H-pyrrolo[2,3-b]pyrazin-6-yl]pyridin-2-yl}-4,4-difluoro-2-(4-fluorophenyl)butanamide] | 12.3 | 10.9 |
| COc1ncnc2c(-c3ccccn3)c(-c3ccnc(NC(=O)C(CC(F)F)c4ccc(F)cc4)c3)[nH]c12 (stereo not drawn) [Example 113, 4,4-difluoro-2-(4-fluorophenyl)-N-{4-[4-methoxy-7-(pyridin-2-yl)-5H-pyrrolo[3,2-d]pyrimidin-6-yl]pyridin-2-yl}butanamide] | 9.2 | 157 |

Reference: patent US12692261B2, “Substituted heterocyclic compounds and therapeutic uses thereof” (Bayer Aktiengesellschaft, priority 2020, dated 2026)
